Holding throughout (assay type): binding
Experiment [1] concerns the target Bcl-xL (residues 1-209, loop 45-86 deleted) (Homo sapiens (Human), UniProt Q07817, DEL45-86). In words: Fluorescence polarization anisotropy competition selectivity assay (FITC-Bak peptide) with Bcl-xL. Conditions: Table 3; 4 nM Bcl-xL, 10 nM FITC-Bak. On the procedure: (§1) Compound affinity was measured using a fluorescence polarization anisotropy competition assay. Anisotropy measurements were carried out in 384-well, black, flat-bottom plates (Greiner Bio-one, Monroe, N.C., USA). The assay was run using either a fluorescein isothiocyanate-labeled BH3 peptide derived from Bak (FITC-AHx-[…]-NH2) or a fluorescein isothiocyanate-labeled BH3 peptide derived from Bim (FITC-AHx-[…]-NH2) that were purchased from GenScript (Piscataway, N.J.) at >95% purity and used without further purification. 10 nM FITC-Bak peptide and 15 nM recombinant Mcl-1 (residues 172-327) were added to assay buffer (3 mM dithiothreitol, 50 mM NaCl, 20 mM Tris, pH 7.5). The Bim based assay was run with 1 nM FITC-Bim peptide and 1.5 nM recombinant Mcl-1 (residues 172-327) added to assay buffer (20 mM TRIS pH 7.5, 50 mM NaCl, 3 mM DTT, 0.01% CHAPS). For selectivity assays, 40 nM Bcl-2 (residues 1-207^A96T,G110R, Δ35-91, replaced with Bcl-xL35-50) or 4 nM Bcl-xL (residues 1-209, loop 45-86 deleted) were incubated with 10 nM FITC-Bak in assay buffer.
(§2) Compounds are diluted in DMSO in a 10-point, 3-fold serial dilution scheme. For the FITC-BAK assay 2.5 uL compound is added to 47.5 μL of assay buffer containing FITC-Bak and protein, for a final DMSO concentration of 5% and a top concentration of 20 μM. […] […]. The plate was mixed and incubated for 90 minutes at room temperature. Anisotropy is measured at excitation wavelength 480 nm and emission wavelength 535 nm using an EnVision Multi-label plate reader (PerkinElmer, Wellesley, Mass., USA) or a BioTek Cytation 3 (BioTek, Winooski, Vt., USA). […] IC50 is converted to a binding dissociation constant (Ki value) according to the formula of Wang Z. FEBS Lett (1996) 3, 245.
A general note: Polarisation of emitted light reports the rotation of a fluorescent probe.

In experiment [2] the target is Bcl-2 (residues 1-207 A96T,G110R, Δ35-91, replaced with Bcl-xL35-50) (Homo sapiens, UniProt P10415, A37E/DEL42-87/G36T/INS34DVEEN/P40E/P88T/P90S/P91E/V35R/V89E). Description: Fluorescence polarization anisotropy competition selectivity assay (FITC-Bak peptide) with Bcl-2. Conditions: Table 3; 40 nM Bcl-2, 10 nM FITC-Bak. On the procedure:
as §1, §2

Experiment [3] deals with recombinant Mcl-1 (residues 172-327) (Homo sapiens (Human), UniProt Q07820). Description: Fluorescence polarization anisotropy competition assay (FITC-Bak or FITC-Bim BH3 peptide) with Mcl-1.
Sequence of recombinant Mcl-1 (residues 172-327) (Q07820 172-327): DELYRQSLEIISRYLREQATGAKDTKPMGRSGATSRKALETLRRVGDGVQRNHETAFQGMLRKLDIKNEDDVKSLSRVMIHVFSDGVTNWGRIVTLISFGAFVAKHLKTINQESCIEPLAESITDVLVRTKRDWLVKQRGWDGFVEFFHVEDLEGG
[4] abbreviates: Table 2, Ki bins given in nM, FITC-Bak or FITC-Bim peptide competition, Ki converted from IC50, read-out: Ki for Inhibition of Mcl-1.
Where [5] appears, read: Table 3, selectivity panel, read-out: Mcl-1 Ki.

Where two headings read alike, the source gives them in different places.

Sequence of Bcl-xL (residues 1-209, loop 45-86 deleted) (Q07817 other isoform, or with tags, fused parts or gaps del 45-86): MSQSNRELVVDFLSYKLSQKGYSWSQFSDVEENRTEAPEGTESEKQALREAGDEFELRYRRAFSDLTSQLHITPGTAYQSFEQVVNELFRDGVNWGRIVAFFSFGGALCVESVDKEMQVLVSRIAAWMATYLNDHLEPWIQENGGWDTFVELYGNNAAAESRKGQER

Turning to `Cc1cc(OCCCc2c(C(=O)Nc3cccc(C(=O)O)c3)n(C)c3c(-c4c(C)nn(C)c4C)c(Cl)ccc23)cc(C)c1Cl` [I-188, 3-(6-chloro-3-(3-(4-chloro-3,5-dimethylphenoxy)propyl)-1-methyl-7-(1,3,5-trimethyl-1H-pyrazol-4-yl)-1H-indole-2-carboxamido)benzoic acid], the Ki in experiment [1] came to 15.6 µM; in experiment [2], 5.3 µM.

`Cc1cc(OCCCc2c(C(=O)NCc3c[nH]c(C(=O)O)c3)[nH]c3c(-c4c(C)nn(C)c4C)cccc23)cc(C)c1Cl` [I-71, 4-((3-(3-(4-chloro-3,5-dimethylphenoxy)propyl)-7-(1,3,5-trimethyl-1H-pyrazol-4-yl)-1H-indole-2-carboxamido)methyl)-1H-pyrrole-2-carboxylic acid]: the Ki in experiment [1] came out at 13.8 µM; in experiment [2], 5.95 µM. For `Cc1cc(OCCCc2c(C(=O)NCc3cc(C(=O)O)ccn3)[nH]c3c(-c4c(C)nn(C)c4C)cccc23)cc(C)c1Cl` [I-280, 2-((3-(3-(4-chloro-3,5-dimethylphenoxy)propyl)-7-(1,3,5-trimethyl-1H-pyrazol-4-yl)-1H-indole-2-carboxamido)methyl)isonicotinic acid] the same measures were 27 µM and 7.9 µM.

Turning to `Cc1cc(OCCCc2c(C(=O)NCc3cc(C(=O)O)n(C)c3)[nH]c3c(-c4c(C)nn(C)c4C)cccc23)cc(C)c1Cl` [I-74, 4-((3-(3-(4-chloro-3,5-dimethylphenoxy)propyl)-7-(1,3,5-trimethyl-1H-pyrazol-4-yl)-1H-indole-2-carboxamido)methyl)-1-methyl-1H-pyrrole-2-carboxylic acid], the inhibition constant (Ki) in experiment [3] (setting [4]) was […]; in experiment [3] (setting [5]) it was […]; in experiment [1], greater than 100 µM; in experiment [2], 3.54 µM. Consider `Cc1cc(OCCCc2c(C(=O)Nc3cncc(C(=O)O)c3)[nH]c3c(-c4c(C)nn(C)c4C)c(Cl)ccc23)cc(C)c1Cl` [I-181, 5-(6-chloro-3-(3-(4-chloro-3,5-dimethylphenoxy)propyl)-7-(1,3,5-trimethyl-1H-pyrazol-4-yl)-1H-indole-2-carboxamido)nicotinic acid], for which the inhibition constant Ki is 61.5 µM in experiment [1] and 3.2 µM in experiment [2]. For `Cc1cc(OCCCc2c3n(c4c(-c5c(C)nn(C)c5C)cccc24)CCCN(Cc2cccc(C(=O)O)c2)C3=O)cc(C)c1Cl` [I-32, 3-((11-(3-(4-chloro-3,5-dimethylphenoxy)propyl)-1-oxo-7-(1,3,5-trimethyl-1H-pyrazol-4-yl)-4,5-dihydro-1H-[1,4]diazepino[1,2-a]indol-2(3H)-yl)methyl)benzoic acid] the same measures were 13.4 µM and 3.82 µM.

In the case of `Cc1cc(OCCCc2c3n(c4c(-c5c(C)nn(C)c5C)c(Cl)ccc24)CCCN(Cc2cccc(C(=O)O)c2)C3=O)cc(C)c1Cl` [I-80, 3-((8-chloro-11-(3-(4-chloro-3,5-dimethylphenoxy)propyl)-1-oxo-7-(1,3,5-trimethyl-1H-pyrazol-4-yl)-4,5-dihydro-1H-[1,4]diazepino[1,2-a]indol-2(3H)-yl)methyl)benzoic acid], the inhibition constant (Ki) stood at 6.75 µM in experiment [1] and 2.34 µM in experiment [2]. For `Cc1cc(OCCCc2c3n(c4c(-c5c(C)nn(C)c5C)c(Cl)ccc24)CCCN(c2cccc(C(=O)O)c2)C3=O)cc(C)c1Cl` [I-177, 3-(8-chloro-11-(3-(4-chloro-3,5-dimethylphenoxy)propyl)-1-oxo-7-(1,3,5-trimethyl-1H-pyrazol-4-yl)-4,5-dihydro-1H-[1,4]diazepino[1,2-a]indol-2(3H)-yl)benzoic acid], the inhibitory constant (Ki) in experiment [2] is 1.9 µM. As for `Cc1cc(OCCCc2c(C(=O)Nc3ccc(C(=O)O)cc3)[nH]c3c(-c4c(C)nn(CCN5CCOCC5)c4C)c(Cl)ccc23)cc(C)c1Cl` [I-190, 4-(6-chloro-3-(3-(4-chloro-3,5-dimethylphenoxy)propyl)-7-(3,5-dimethyl-1-(2-morpholinoethyl)-1H-pyrazol-4-yl)-1H-indole-2-carboxamido)benzoic acid], the inhibition constant Ki was […] in experiment [3] (setting [4]), […] in experiment [3] (setting [5]), 45.6 µM in experiment [1] and 1.64 µM in experiment [2]. Consider `Cc1cc(OCCCc2c(C(=O)Nc3cc(C(=O)O)ccn3)[nH]c3c(-c4c(C)nn(C)c4C)c(Cl)ccc23)cc(C)c1Cl` [I-183, 2-(6-chloro-3-(3-(4-chloro-3,5-dimethylphenoxy)propyl)-7-(1,3,5-trimethyl-1H-pyrazol-4-yl)-1H-indole-2-carboxamido)isonicotinic acid], for which the inhibition constant (Ki) was found to be 14.4 µM in experiment [1] and 2.9 µM in experiment [2].

For `Cc1cc(OCCCc2c(C(=O)N(Cc3ccc(C(F)(F)F)cc3)c3ccc(S(N)(=O)=O)cn3)[nH]c3ccccc23)cc(C)c1Cl` [I-49, 3-(3-(4-chloro-3,5-dimethylphenoxy)propyl)-N-(5-sulfamoylpyridin-2-yl)-N-(4-(trifluoromethyl)benzyl)-1H-indole-2-carboxamide], the Ki in experiment [3] (setting [4]) fell in the range of 101 to 299 nM. On the same count and under the same terms, under `Cc1cc(OCCCc2c3n(c4c(-c5c(C)nn(C)c5C)c(Cl)ccc24)CCCN(c2cc(CN(C)C)cc(C(=O)O)c2)C3=O)cc(C)c1Cl` [I-226, 3-(8-chloro-11-(3-(4-chloro-3,5-dimethylphenoxy)propyl)-1-oxo-7-(1,3,5-trimethyl-1H-pyrazol-4-yl)-4,5-dihydro-1H-[1,4]diazepino[1,2-a]indol-2(3H)-yl)-5-((dimethylamino)methyl)benzoic acid] stands less than 50 nM; under `CCn1ccc2c(N3CCCn4c(c(CCCOc5cc(C)c(Cl)c(C)c5)c5ccc(Cl)c(-c6c(C)nn(C)c6C)c54)C3=O)cc(C(=O)O)cc21` [I-249, 4-(8-chloro-11-(3-(4-chloro-3,5-dimethylphenoxy)propyl)-1-oxo-7-(1,3,5-trimethyl-1H-pyrazol-4-yl)-4,5-dihydro-1H-[1,4]diazepino[1,2-a]indol-2(3H)-yl)-1-ethyl-1H-indole-6-carboxylic acid], less than 50 nM. As for `Cc1cc(OCCCc2c3n(c4c(-c5c(C)nn(C)c5C)c(Cl)ccc24)CCCN(c2cc(C(=O)O)cc4c2ccn4Cc2cccnc2)C3=O)cc(C)c1Cl` [I-242, 4-(8-chloro-11-(3-(4-chloro-3,5-dimethylphenoxy)propyl)-1-oxo-7-(1,3,5-trimethyl-1H-pyrazol-4-yl)-4,5-dihydro-1H-[1,4]diazepino[1,2-a]indol-2(3H)-yl)-1-(pyridin-3-ylmethyl)-1H-indole-6-carboxylic acid], the inhibitory constant (Ki) in experiment [3] (setting [4]) was less than 50 nM. On the same count and under the same terms, under `Cc1cc(OCCCc2c3n(c4c(-c5c(C)nn(C)c5C)c(Cl)ccc24)CCCN(c2cc(C(=O)O)cc4c2ncn4C)C3=O)cc(C)c1Cl` [I-365, 4-(8-chloro-11-(3-(4-chloro-3,5-dimethylphenoxy)propyl)-1-oxo-7-(1,3,5-trimethyl-1H-pyrazol-4-yl)-4,5-dihydro-1H-[1,4]diazepino[1,2-a]indol-2(3H)-yl)-1-methyl-1H-benzo[d]imidazole-6-carboxylic acid] stands less than 50 nM; under `Cc1cc(OCCCc2c(C(=O)NCC(=O)N[C@@H](CC(C)C)C(=O)O)[nH]c3c(-c4c(C)nn(C)c4C)cccc23)cc(C)c1Cl` [I-292, (3-(3-(4-chloro-3,5-dimethylphenoxy)propyl)-7-(1,3,5-trimethyl-1H-pyrazol-4-yl)-1H-indole-2-carbonyl)glycyl-L-leucine], less than 50 nM; under `Cc1cc(OCCCc2c3n(c4c(-c5c(C)nn(C)c5C)c(Cl)ccc24)CCCN(C2SC(=O)NC2C(=O)O)C3=O)cc(C)c1Cl` (stereo not drawn) [I-346, 5-(8-chloro-11-(3-(4-chloro-3,5-dimethylphenoxy)propyl)-1-oxo-7-(1,3,5-trimethyl-1H-pyrazol-4-yl)-4,5-dihydro-1H-[1,4]diazepino[1,2-a]indol-2(3H)-yl)-2-oxothiazolidine-4-carboxylic acid], less than 50 nM.

Consider `Cc1cc(OCCCc2c(C(=O)Nc3cccc(C(=O)O)c3)[nH]c3c(-c4c(C)nn(C)c4C)c(Cl)ccc23)cc(C)c1Cl` [I-39, 3-(6-chloro-3-(3-(4-chloro-3,5-dimethylphenoxy)propyl)-7-(1,3,5-trimethyl-1H-pyrazol-4-yl)-1H-indole-2-carboxamido)benzoic acid], for which the Ki in experiment [1] came out at 4.59 µM; in experiment [2] it was 1.54 µM. Regarding `Cc1cc(OCCCc2c(C(=O)Nc3ccc(C(=O)O)cc3)[nH]c3c(-c4cccnc4C)cccc23)cc(C)c1Cl` [I-37, 4-(3-(3-(4-chloro-3,5-dimethylphenoxy)propyl)-7-(2-methylpyridin-3-yl)-1H-indole-2-carboxamido)benzoic acid], the Ki in experiment [3] (setting [4]) was less than 50 nM.

One may read the Ki as the equilibrium dissociation constant of an inhibitor or competing ligand from its target.

The values are drawn from patent publication US10533010B2, “Substituted indole Mcl-1 inhibitors” (Vanderbilt University, priority 2014, dated 2020).
